Reference: US20070021434A1, “NON-NUCLEOSIDE ANTI-HEPACIVIRUS AGENTS AND USES THEREOF” (Migenix Inc., priority 2005, published 2007)
Like-named read-outs stand apart in the source and are kept apart here.

Columns and labels:
[1] = tested on: Huh-7 cells, genotype 1b HCV replicon; experiment: Inhibition of HCV replication in cell culture, genotype 1b replicon; type: cell-based, hepatitis C virus; settings: for EC50: Hepatitis C virus, Huh-7, 24 h, Huh-7, genotype 1b replicon, intracellular HCV RNA 24 h after 3 daily doses; for Selectivity Index (CC50/EC50): genotype 1b replicon, CC50 by neutral red uptake
Description: Test compounds were solubilized at 30 mM in 100% tissue culture grade DMSO (Sigma, Inc.). Aliquots of test compounds sufficient for one daily treatment were made in individual tubes and all material was stored at −20° C. On each day of treatment, daily aliquots of the test compounds were suspended in culture medium at room temperature and immediately added to the cell cultures. Compounds were added to dividing cultures once daily for three days at concentrations ranging from about 30 μM to about 0.0003 μM. Media was changed with each addition of compound. The assays were started when cell cultures were at about 30-50% confluence, and the cells reached confluence during the last day of treatment. The assays included untreated control cultures (six total), and triplicate cultures treated with α-interferon and ribavirin as positive antiviral and toxicity controls.
Intracellular HCV RNA levels and cytotoxicity were assessed in triplicate 24 hours after the last compound dose.

HCV RdRp (NS5B) = HCV RdRp (NS5B) (UniProt P26663); type: biochemical, hepatitis C virus
HCV RdRp (NS5B), sequence (P26663 whole entry, looked up): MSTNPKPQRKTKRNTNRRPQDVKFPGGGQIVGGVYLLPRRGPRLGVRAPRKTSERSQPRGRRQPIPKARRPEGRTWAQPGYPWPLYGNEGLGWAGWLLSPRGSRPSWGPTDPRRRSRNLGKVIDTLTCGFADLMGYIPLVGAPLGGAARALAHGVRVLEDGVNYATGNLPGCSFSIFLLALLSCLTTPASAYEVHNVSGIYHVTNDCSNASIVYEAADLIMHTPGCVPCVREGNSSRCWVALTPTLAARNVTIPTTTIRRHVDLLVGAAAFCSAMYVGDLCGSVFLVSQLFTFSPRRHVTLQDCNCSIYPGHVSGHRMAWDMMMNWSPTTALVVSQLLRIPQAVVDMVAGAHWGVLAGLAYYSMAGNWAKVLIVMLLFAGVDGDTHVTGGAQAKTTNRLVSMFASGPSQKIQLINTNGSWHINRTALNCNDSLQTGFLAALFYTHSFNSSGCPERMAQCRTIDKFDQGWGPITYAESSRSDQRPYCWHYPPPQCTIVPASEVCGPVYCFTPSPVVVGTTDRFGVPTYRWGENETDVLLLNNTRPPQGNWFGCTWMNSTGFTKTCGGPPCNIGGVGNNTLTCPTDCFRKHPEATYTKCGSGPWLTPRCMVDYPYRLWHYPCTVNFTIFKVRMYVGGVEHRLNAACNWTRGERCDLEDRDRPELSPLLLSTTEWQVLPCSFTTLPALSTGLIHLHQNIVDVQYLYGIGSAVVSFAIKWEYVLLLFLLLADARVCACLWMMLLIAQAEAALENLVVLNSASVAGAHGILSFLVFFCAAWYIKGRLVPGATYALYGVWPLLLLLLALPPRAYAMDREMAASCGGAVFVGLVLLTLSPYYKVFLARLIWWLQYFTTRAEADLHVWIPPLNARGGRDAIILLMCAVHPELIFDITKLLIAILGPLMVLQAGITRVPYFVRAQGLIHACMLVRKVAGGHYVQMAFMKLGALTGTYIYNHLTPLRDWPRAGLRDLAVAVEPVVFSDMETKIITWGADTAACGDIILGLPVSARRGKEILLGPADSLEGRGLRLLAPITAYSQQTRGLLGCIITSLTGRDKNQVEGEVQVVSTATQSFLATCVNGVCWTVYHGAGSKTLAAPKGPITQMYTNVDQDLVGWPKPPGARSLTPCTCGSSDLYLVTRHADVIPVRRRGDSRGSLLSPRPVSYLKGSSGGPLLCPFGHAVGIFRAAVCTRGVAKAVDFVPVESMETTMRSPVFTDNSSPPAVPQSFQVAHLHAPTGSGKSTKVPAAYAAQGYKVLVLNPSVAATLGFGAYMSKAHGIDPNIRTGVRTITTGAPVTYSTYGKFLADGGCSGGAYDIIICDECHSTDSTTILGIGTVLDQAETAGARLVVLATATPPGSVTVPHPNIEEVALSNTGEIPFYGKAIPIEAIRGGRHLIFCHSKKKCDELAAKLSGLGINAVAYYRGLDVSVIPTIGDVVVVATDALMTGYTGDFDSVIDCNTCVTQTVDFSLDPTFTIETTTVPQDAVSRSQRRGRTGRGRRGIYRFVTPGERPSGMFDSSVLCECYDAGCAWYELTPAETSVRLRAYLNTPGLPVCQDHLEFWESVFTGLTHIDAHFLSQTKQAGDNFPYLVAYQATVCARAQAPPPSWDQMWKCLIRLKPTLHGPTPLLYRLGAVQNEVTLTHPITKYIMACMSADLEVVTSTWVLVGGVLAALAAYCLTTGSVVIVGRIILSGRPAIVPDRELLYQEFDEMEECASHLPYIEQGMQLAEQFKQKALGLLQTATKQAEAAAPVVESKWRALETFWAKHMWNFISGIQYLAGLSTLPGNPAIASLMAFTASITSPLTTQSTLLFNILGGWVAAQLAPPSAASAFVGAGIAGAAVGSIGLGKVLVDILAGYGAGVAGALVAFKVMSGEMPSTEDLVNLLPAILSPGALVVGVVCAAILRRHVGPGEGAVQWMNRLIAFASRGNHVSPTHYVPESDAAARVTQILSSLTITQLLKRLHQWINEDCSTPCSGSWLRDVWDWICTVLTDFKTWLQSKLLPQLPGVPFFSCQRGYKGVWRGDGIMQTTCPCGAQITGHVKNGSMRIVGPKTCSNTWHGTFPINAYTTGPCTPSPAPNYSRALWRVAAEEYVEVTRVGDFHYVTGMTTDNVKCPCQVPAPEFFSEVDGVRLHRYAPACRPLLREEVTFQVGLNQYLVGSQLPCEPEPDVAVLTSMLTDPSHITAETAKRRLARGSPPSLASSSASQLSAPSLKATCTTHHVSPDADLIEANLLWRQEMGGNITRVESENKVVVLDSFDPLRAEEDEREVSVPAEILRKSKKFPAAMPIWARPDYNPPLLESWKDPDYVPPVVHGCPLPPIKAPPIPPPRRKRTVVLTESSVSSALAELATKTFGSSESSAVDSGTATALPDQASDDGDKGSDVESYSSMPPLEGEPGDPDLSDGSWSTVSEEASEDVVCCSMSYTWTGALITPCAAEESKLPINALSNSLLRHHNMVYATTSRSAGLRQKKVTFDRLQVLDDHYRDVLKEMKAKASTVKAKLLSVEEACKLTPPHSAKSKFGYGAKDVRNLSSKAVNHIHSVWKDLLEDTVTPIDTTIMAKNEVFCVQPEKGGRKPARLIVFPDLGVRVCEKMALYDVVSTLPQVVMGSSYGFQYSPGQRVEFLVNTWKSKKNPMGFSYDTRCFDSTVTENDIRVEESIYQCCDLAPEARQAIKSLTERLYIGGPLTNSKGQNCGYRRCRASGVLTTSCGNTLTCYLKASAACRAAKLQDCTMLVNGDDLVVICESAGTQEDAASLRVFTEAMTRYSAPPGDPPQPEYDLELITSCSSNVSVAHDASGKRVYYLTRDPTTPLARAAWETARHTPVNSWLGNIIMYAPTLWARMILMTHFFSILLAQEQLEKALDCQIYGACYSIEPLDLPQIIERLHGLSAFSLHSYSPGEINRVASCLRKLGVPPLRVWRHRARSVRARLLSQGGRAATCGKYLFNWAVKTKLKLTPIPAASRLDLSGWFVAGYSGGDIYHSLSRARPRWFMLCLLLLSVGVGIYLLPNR

SMILES | EC50 ([1]; read-out: EC50) [µM] | Selectivity Index (CC50/EC50) [1] | IC50 (HCV RdRp (NS5B)) [µM] | EC50 [1] [µM]
NCCCCN(CC(=O)Nc1ccc(C2CCCCC2)cc1)C(=O)Nc1ccc(C=Cc2ccccc2)cc1 [Compound 324, 2-[1-(4-AMINO-BUTYL)-3-(4-STYRYL-PHENYL)-UREIDO]-N-(4-CYCLOHEXYL-PHENYL)-ACETAMIDE] | > 2 | <20 | 10 to 50 | –
NCCCC[C@H](NC(=O)OCC1c2ccccc2-c2ccccc21)C(=O)Nc1ccc(CN)cc1 [Compound 228, (S)-[5-AMINO-1-(4-AMINOMETHYL-PHENYLCARBAMOYL)-PENTYL]-CARBAMIC ACID 9H-FLUOREN-9-YLMETHYL ESTER] | – | 20 to 100 | < 10 | 0.5
O=C(CC1CNCCN1C(=O)Nc1ccc(OCc2ccccc2)cc1)Nc1ccc(C2CCCCC2)cc1 (stereo not shown) [Compound 163, 2-[(4-CYCLOHEXYL-PHENYLCARBAMOYL)-METHYL]-PIPERAZINE-1-CARBOXYLIC ACID (4-BENZYLOXY-PHENYL)-AMIDE] | < 0.5 | <20 | 10 to 50 | –
NCCCC[C@@H](NC(=O)Nc1ccc(-c2ccccc2)cc1)C(=O)Nc1ccc(C2CCCCC2)cc1 [Compound 142, (R)-6-AMINO-2-(3-BIPHENYL-4-YL-UREIDO)-HEXANOIC ACID (4-CYCLOHEXYL-PHENYL)-AMIDE] | < 0.5 | <20 | < 10 | –
NCCCC[C@@H](NC(=O)Nc1ccc2c(c1)Cc1ccccc1-2)C(=O)Nc1ccc(C2CCCCC2)cc1 [Compound 137, (R)-6-AMINO-2-[3-(9H-FLUOREN-2-YL)-UREIDO]-HEXANOIC ACID (4-CYCLOHEXYL-PHENYL)-AMIDE] | < 0.5 | 20 to 100 | < 10 | –
Cc1ccc(NC(=O)C(Cc2ccc(CN)cc2)NC(=O)Nc2ccc(OCc3ccccc3)cc2)cc1 [Compound 146, (S)-3-(4-AMINOMETHYL-PHENYL)-2-[3-(4-BENZYLOXY-PHENYL)-UREIDO]-N-P-TOLYL-PROPIONAMIDE] | < 0.5 | 20 to 100 | < 10 | –
NCCCCC[C@H](NC(=O)Nc1ccc(OCc2ccccc2)cc1)C(=O)Nc1ccc(C2CCCCC2)cc1 [Compound 121, (S)-7-AMINO-2-[3-(4-BENZYLOXY-PHENYL)-UREIDO]-HEPTANOIC ACID (4-CYCLOHEXYL-PHENYL)-AMIDE] | < 0.5 | <20 | < 10 | –
Cc1ccc(NC(=O)C(CCCCN)NC(=O)Nc2nnc(COc3ccc(C)cc3)s2)cc1 [Compound 272, (S)-6-AMINO-2-[3-(5-P-TOLYLOXYMETHYL-[1,3,4] THIADIAZOL-2-YL)-UREIDO]-HEXANOIC ACID P-TOLYLAMIDE] | 0.5 to 2 | 20 to 100 | 10 to 50 | –
NCCCC[C@H](NC(=O)Nc1ccc(-c2ccccc2)cc1)C(=O)Nc1ccc(C2CCCCC2)cc1 [Compound 119, (S)-6-AMINO-2-(3-BIPHENYL-4-YL-UREIDO)-HEXANOIC ACID (4-CYCLOHEXYL-PHENYL)-AMIDE] | > 2 | <20 | < 10 | –
NCCCC[C@@H](NC(=O)Nc1ccc(OCc2ccccc2)cc1)C(=O)Nc1ccc(C2CCCCC2)cc1 [Compound 166, (R)-6-AMINO-2-[3-(4-BENZYLOXY-PHENYL)-UREIDO]-HEXANOIC ACID (4-CYCLOHEXYL-PHENYL)-AMIDE] | > 2 | <20 | < 10 | –
CC1CCC(NC(=O)[C@H](CCCCN)NC(=O)Nc2ccc(OCc3ccccc3)cc2)CC1 (stereo partly drawn) [Compound 264, (S)-6-AMINO-2-[3-(4-BENZYLOXY-PHENYL)-UREIDO]-HEXANOIC ACID (4-METHYL-CYCLOHEXYL)-AMIDE] | < 0.5 | >100 | 10 to 50 | –
NCCCC[C@H](NC(=O)Nc1ccc(-c2ccccc2)cc1)C(=O)Nc1ccc(CN(C(=O)c2ccco2)C2CCCCC2)cc1 [Compound 26, (S)-FURAN-2-CARBOXYLIC ACID {4-[6-AMINO-2-(3-BIPHENYL-4-YL-UREIDO)-HEXANOYLAMINO]-BENZYL}-CYCLOHEXYL-AMIDE] | > 2 | <20 | < 10 | –
Cc1cc2cc(NC(=O)[C@H](CCCCN)NC(=O)Nc3ccc4c(c3)Cc3ccccc3-4)ccc2[nH]1 [Compound 207, (S)-6-AMINO-2-[3-(9H-FLUOREN-2-YL)-UREIDO]-HEXANOIC ACID (2-METHYL-1H-INDOL-5-YL)-AMIDE] | > 2 | <20 | < 10 | –
Cc1ccc(NC(=O)C(CNC(=O)CN)NC(=O)Nc2ccc(OCc3ccccc3)cc2)cc1 [Compound 268, (S)-3-(2-AMINO-ACETYLAMINO)-2-[3-(4-BENZYLOXY-PHENYL)-UREIDO]-N-P-TOLYL-PROPIONAMIDE] | > 2 | <20 | 10 to 50 | –
NCCCC[C@H](NC(=O)Nc1ccc(OCc2ccccc2)cc1)C(=O)Nc1ccc(C2CCCCC2)cc1 [Compound 117, (S)-6-AMINO-2-[3-(4-BENZYLOXY-PHENYL)-UREIDO]-HEXANOIC ACID (4-CYCLOHEXYL-PHENYL)-AMIDE] | > 2 | <20 | < 10 | –
Cc1cc2cc(NC(=O)[C@H](CCNC(=O)CN)NC(=O)OCC3c4ccccc4-c4ccccc43)ccc2[nH]1 [Compound 237, (S)-[3-(2-AMINO-ACETYLAMINO)-1-(2-METHYL-1H-INDOL-5-YLCARBAMOYL)-PROPYL]-CARBAMIC ACID 9H-FLUOREN-9-YLMETHYL ESTER] | > 2 | <20 | < 10 | –
Cc1ccc(NC(=O)[C@H](CCCCN)NC(=O)CNc2ccccc2Oc2ccccc2)cc1 [Compound 366, (S)-6-AMINO-2-[2-(2-PHENOXY-PHENYLAMINO)-ACETYLAMINO]-HEXANOIC ACID P-TOLYLAMIDE] | > 2 | <20 | < 10 | –
Cc1ccc(NC(=O)[C@H](CCCCN)NC(=O)CNc2cccc(Oc3ccccc3)c2)cc1 [Compound 367, (S)-6-AMINO-2-[2-(3-PHENOXY-PHENYLAMINO)-ACETYLAMINO]-HEXANOIC ACID P-TOLYLAMIDE] | > 2 | <20 | < 10 | –
Cc1ccc(NC(=O)C[C@H](CCCCN)NC(=O)Nc2ccc(OCc3ccccc3)cc2)cc1 [Compound 246, (S)-7-AMINO-3-[3-(4-BENZYLOXY-PHENYL)-UREIDO]-HEPTANOIC ACID P-TOLYLAMIDE] | > 2 | <20 | 10 to 50 | –
Cc1cc2cc(NC(=O)[C@H](Cc3ccc(CN)cc3)NC(=O)OCC3c4ccccc4-c4ccccc43)ccc2[nH]1 [Compound 215, (S)-[2-(4-AMINOMETHYL-PHENYL)-1-(2-METHYL-1H-INDOL-5-YLCARBAMOYL)-ETHYL]-CARBAMIC ACID 9H-FLUOREN-9-YLMETHYL ESTER] | – | – | 10 to 50 | –
COc1ccc2cc(C(=O)NC(CCCCN)C(=O)Nc3ccc(C)cc3)ccc2c1 [Compound 66, (S)-6-METHOXY-NAPHTHALENE-2-CARBOXYLIC ACID (5-AMINO-1-P-TOLYLCARBAMOYL-PENTYL)-AMIDE] | – | – | > 50 | –
O=C(N[C@@H](Cc1c[nH]c2ccccc12)C(=O)N(Cc1ccccc1)C1CCCCC1)OCC1c2ccccc2-c2ccccc21 [Compound 49, (S)-[1-(BENZYL-CYCLOHEXYL-CARBAMOYL)-2-(1H-INDOL-3-YL)-ETHYL]-CARBAMIC ACID 9H-FLUOREN-9-YLMETHYL ESTER] | – | – | > 50 | –
Cc1ccc(NC(=O)[C@H](CCCCN)NC(=O)COc2ccc(Cl)cc2)cc1 [Compound 331, (S)-6-AMINO-2-[2-(4-CHLORO-PHENOXY)-ACETYLAMINO]-HEXANOIC ACID P-TOLYLAMIDE] | – | – | > 50 | –
NCCCC[C@H](NC(=O)Nc1ccc(OCc2ccccc2)cc1)C(=O)NC1CC1 [Compound 266, (S)-6-AMINO-2-[3-(4-BENZYLOXY-PHENYL)-UREIDO]-HEXANOIC ACID CYCLOPROPYLAMIDE] | – | – | > 50 | –
Cc1ccc(NC(=O)C2CCCCN2C(=O)OCC2c3ccccc3-c3ccccc32)cc1 [Compound 123, (R)-2-P-TOLYLCARBAMOYL-PIPERIDINE-1-CARBOXYLIC ACID 9H-FLUOREN-9-YLMETHYL ESTER] | – | – | > 50 | –
CCCC[C@H](NC(=O)OCC1c2ccccc2-c2ccccc21)C(=O)Nc1ccc(CN(C(=O)c2ccco2)C2CCCCC2)cc1 [Compound 37, (S)-[1-(4-{[CYCLOHEXYL-(FURAN-2-CARBONYL)-AMINO]-METHYL}-PHENYLCARBAMOYL)-PENTYL]-CARBAMIC ACID 9H-FLUOREN-9-YLMETHYL ESTER] | – | – | > 50 | –
NCCCCCCNC(=O)C(NC(=O)Nc1ccc(OCc2ccccc2)cc1)c1ccccc1 [Compound 320, (R)-NR-(6-AMINO-HEXYL)-2-[3-(4-BENZYLOXY-PHENYL)-UREIDO]-2-PHENYL-ACETAMIDE] | – | – | < 10 | –
Cc1ccc(NC(=O)[C@H](CCCCN)NC(=O)Nc2ccc(OCc3ccc(F)c(F)c3)cc2)cc1 [Compound 288, (S)-6-AMINO-2-{3-[4-(3,4-DIFLUORO-BENZYLOXY)-PHENYL]-UREIDO}-HEXANOIC ACID P-TOLYLAMIDE] | – | – | 10 to 50 | –
CC[C@H](NC(=O)OCC1c2ccccc2-c2ccccc21)C(=O)Nc1ccc(CN(C(=O)c2ccco2)C2CCCCC2)cc1 [Compound 28, (S)-[1-(4-{[CYCLOHEXYL-(FURAN-2-CARBONYL)-AMINO]-METHYL}-PHENYLCARBAMOYL)-PROPYL]-CARBAMIC ACID 9H-FLUOREN-9-YLMETHYL ESTER] | – | – | > 50 | –
